{"source": "ChEMBL document CHEMBL4507303", "about": "“Data for DCP probe TP-004” (2021)", "key": {"[1]": {"target": "Ephrin type-B receptor 4 (Homo sapiens) (UniProt P54760)", "conditions": "Compound concentration 1000.0 nM"}, "[2]": {"target": "Serine/threonine-protein kinase SIK2 (Homo sapiens) (UniProt Q9H0K1)", "conditions": "Compound concentration 1000.0 nM"}, "[3]": {"target": "Bone morphogenetic protein receptor type-1B (Homo sapiens) (UniProt O00238)", "conditions": "Compound concentration 1000.0 nM"}, "[4]": {"target": "Macrophage-stimulating protein receptor (Homo sapiens) (UniProt Q04912)", "conditions": "Compound concentration 1000.0 nM"}, "[5]": {"target": "Calcium/calmodulin-dependent protein kinase kinase 1 (Homo sapiens) (UniProt Q8N5S9)", "conditions": "Compound concentration 1000.0 nM"}, "[6]": {"target": "Kappa-type opioid receptor (Homo sapiens) (UniProt P41145)", "conditions": "Compound concentration 10.0 uM"}, "[7]": {"target": "5-hydroxytryptamine receptor 1D (Homo sapiens) (UniProt P28221)", "conditions": "Compound concentration 10.0 uM"}, "[8]": {"tested_on": "Epidermal growth factor receptor (Homo sapiens), P00533 [G719S]", "conditions": "Compound concentration 1000.0 nM"}, "[9]": {"target": "Sigma intracellular receptor 2 (Homo sapiens) (UniProt Q5BJF2)", "conditions": "Compound concentration 10.0 uM"}, "[10]": {"target": "Serine/threonine-protein kinase B-raf (Homo sapiens) (UniProt P15056)", "conditions": "Compound concentration 1000.0 nM"}, "[11]": {"target": "Ankyrin repeat and protein kinase domain-containing protein 1 (Homo sapiens) (UniProt Q8NFD2)", "conditions": "Compound concentration 1000.0 nM"}, "[12]": {"target": "Dual specificity mitogen-activated protein kinase kinase 7 (Homo sapiens) (UniProt O14733)", "sequence (O14733 whole entry)": "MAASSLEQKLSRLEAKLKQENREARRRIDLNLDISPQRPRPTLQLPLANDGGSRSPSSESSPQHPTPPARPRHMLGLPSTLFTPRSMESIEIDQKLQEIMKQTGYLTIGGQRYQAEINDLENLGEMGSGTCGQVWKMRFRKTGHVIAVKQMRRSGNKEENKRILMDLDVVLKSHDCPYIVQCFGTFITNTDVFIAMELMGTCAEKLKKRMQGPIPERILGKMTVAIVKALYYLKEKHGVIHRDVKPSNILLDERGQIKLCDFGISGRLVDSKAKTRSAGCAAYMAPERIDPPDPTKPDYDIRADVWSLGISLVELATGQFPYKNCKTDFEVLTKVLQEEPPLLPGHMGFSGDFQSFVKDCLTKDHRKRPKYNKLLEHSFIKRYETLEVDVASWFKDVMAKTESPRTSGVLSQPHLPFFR", "conditions": "Compound concentration 1000.0 nM"}, "[13]": {"target": "Focal adhesion kinase 1 (Homo sapiens) (UniProt Q05397)", "sequence (Q05397 2-1052 limits assumed)": "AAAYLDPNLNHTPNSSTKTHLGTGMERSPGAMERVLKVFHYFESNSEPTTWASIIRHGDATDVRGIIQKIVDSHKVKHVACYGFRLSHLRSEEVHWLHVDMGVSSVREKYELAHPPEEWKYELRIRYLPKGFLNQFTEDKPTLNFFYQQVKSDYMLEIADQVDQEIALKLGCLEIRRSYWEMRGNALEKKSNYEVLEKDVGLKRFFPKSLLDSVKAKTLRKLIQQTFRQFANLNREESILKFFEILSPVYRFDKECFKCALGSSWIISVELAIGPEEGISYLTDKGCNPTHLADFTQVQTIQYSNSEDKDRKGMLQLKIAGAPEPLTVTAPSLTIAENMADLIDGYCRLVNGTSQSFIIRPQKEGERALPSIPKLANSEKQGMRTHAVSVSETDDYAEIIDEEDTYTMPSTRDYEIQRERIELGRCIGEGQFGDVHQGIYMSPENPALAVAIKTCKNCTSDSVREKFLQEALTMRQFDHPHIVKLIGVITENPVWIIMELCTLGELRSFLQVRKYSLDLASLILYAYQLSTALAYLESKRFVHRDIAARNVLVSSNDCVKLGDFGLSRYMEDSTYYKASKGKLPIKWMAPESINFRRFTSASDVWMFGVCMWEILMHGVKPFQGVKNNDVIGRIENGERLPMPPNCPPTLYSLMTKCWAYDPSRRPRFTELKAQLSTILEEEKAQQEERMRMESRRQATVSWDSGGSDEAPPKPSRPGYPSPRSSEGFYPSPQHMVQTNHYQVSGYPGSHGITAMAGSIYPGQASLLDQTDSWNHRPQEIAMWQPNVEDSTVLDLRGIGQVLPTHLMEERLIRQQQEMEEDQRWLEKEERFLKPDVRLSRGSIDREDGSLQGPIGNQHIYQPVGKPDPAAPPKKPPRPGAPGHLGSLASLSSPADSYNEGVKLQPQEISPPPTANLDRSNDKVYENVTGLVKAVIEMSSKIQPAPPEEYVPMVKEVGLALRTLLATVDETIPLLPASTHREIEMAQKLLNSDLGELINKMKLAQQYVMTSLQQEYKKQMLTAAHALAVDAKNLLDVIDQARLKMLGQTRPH", "conditions": "Compound concentration 1000.0 nM"}, "[14]": {"target": "Serine/threonine-protein kinase ULK1 (Homo sapiens) (UniProt O75385)", "conditions": "Compound concentration 1000.0 nM"}, "[15]": {"target": "Alpha-1B adrenergic receptor (Homo sapiens) (UniProt P35368)", "conditions": "Compound concentration 10.0 uM"}, "[16]": {"target": "Hepatocyte growth factor receptor (Homo sapiens) (UniProt P08581)", "conditions": "Compound concentration 1000.0 nM"}, "[17]": {"target": "Protein kinase C eta type (Homo sapiens) (UniProt P24723)", "conditions": "Compound concentration 1000.0 nM"}, "[18]": {"target": "Histamine H1 receptor (Homo sapiens) (UniProt P35367)", "conditions": "Compound concentration 10.0 uM"}, "[19]": {"target": "Mitogen-activated protein kinase kinase kinase 2 (Homo sapiens) (UniProt Q9Y2U5)", "conditions": "Compound concentration 1000.0 nM"}, "[20]": {"target": "Dual specificity protein kinase CLK1 (Homo sapiens) (UniProt P49759)", "conditions": "Compound concentration 1000.0 nM"}, "[21]": {"target": "Phosphatidylinositol 4-phosphate 3-kinase C2 domain-containing subunit beta (Homo sapiens) (UniProt O00750)", "conditions": "Compound concentration 1000.0 nM"}, "[22]": {"target": "Serine/threonine-protein kinase PAK 2 (Homo sapiens) (UniProt Q13177)", "conditions": "Compound concentration 1000.0 nM"}, "[23]": {"target": "Myosin light chain kinase family member 4 (Homo sapiens) (UniProt Q86YV6)", "conditions": "Compound concentration 1000.0 nM"}, "[24]": {"target": "Mitogen-activated protein kinase 12 (Homo sapiens) (UniProt P53778)", "sequence (P53778 whole entry)": "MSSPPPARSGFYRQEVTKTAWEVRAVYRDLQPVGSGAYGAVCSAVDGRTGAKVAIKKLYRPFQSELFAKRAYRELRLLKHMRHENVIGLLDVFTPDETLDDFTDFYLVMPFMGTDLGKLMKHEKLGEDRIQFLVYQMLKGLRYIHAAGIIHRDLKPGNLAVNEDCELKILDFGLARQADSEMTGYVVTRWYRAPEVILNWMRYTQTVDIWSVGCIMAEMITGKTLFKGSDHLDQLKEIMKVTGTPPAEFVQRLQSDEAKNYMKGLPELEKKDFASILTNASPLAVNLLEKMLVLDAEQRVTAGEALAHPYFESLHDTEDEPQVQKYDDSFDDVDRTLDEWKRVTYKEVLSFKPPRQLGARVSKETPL", "conditions": "Compound concentration 1000.0 nM"}, "[25]": {"target": "Serine/threonine-protein kinase 25 (Homo sapiens) (UniProt O00506)", "conditions": "Compound concentration 1000.0 nM"}, "[26]": {"target": "Platelet-derived growth factor receptor beta (Homo sapiens) (UniProt P09619)", "conditions": "Compound concentration 1000.0 nM"}, "[27]": {"target": "Phosphatidylinositol 4,5-bisphosphate 3-kinase catalytic subunit beta isoform (Homo sapiens) (UniProt P42338)", "sequence (P42338 whole entry, looked up, canonical isoform)": "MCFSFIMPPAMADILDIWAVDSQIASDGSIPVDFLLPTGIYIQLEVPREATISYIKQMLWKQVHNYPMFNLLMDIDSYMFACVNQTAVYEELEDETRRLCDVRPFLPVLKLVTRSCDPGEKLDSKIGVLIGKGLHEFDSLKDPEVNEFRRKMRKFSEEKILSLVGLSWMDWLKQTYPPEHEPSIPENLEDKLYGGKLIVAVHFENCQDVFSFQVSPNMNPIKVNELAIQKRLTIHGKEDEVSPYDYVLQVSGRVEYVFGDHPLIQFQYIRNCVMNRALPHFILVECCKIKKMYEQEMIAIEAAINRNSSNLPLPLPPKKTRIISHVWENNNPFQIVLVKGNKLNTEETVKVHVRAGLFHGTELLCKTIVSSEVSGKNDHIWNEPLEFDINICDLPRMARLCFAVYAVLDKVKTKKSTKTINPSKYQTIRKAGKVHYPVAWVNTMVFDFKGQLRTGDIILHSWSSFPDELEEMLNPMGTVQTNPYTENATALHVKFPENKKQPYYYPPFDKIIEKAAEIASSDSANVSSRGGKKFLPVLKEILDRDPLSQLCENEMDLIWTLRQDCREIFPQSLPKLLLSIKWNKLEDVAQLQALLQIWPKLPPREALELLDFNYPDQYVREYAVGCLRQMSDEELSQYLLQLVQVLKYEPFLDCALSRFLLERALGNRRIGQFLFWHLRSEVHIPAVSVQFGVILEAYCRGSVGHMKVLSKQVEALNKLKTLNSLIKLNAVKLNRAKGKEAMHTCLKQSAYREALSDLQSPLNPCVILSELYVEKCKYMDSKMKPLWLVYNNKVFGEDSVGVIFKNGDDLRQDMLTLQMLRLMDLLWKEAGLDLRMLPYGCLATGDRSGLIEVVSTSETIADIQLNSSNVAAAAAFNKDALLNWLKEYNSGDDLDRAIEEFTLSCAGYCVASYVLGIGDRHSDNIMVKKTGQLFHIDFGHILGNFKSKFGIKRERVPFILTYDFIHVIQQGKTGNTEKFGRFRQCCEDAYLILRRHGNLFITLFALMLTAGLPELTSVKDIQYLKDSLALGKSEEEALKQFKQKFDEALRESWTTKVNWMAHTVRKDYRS", "conditions": "Compound concentration 1000.0 nM"}, "[28]": {"target": "Cytoplasmic tyrosine-protein kinase BMX (Homo sapiens) (UniProt P51813)", "conditions": "Compound concentration 1000.0 nM"}, "[29]": {"target": "Ephrin type-A receptor 1 (Homo sapiens) (UniProt P21709)", "sequence (P21709 whole entry)": "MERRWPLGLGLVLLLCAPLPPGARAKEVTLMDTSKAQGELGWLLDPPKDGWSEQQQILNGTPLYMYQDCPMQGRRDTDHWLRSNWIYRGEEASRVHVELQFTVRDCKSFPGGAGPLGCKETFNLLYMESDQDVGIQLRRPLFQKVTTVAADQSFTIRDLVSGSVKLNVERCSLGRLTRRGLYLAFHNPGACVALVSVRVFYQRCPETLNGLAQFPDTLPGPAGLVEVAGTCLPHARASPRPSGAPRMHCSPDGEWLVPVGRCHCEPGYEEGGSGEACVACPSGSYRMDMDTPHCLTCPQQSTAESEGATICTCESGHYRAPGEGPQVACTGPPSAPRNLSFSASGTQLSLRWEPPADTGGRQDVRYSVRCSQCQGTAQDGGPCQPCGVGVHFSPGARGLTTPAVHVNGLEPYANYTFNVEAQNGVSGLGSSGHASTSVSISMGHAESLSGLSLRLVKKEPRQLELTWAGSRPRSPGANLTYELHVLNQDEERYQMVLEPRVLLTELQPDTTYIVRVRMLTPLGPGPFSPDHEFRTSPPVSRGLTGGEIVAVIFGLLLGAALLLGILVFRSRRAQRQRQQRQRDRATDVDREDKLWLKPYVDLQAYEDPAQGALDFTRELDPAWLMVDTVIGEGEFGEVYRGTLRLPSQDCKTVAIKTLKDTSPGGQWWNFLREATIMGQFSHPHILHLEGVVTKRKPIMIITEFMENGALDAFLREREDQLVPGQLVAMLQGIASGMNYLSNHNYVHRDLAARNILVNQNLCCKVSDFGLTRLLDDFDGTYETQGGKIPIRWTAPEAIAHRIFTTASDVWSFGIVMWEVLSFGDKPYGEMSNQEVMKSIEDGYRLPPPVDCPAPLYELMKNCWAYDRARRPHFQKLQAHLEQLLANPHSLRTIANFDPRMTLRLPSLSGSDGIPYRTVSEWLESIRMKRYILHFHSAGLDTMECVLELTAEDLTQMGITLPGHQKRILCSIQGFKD", "conditions": "Compound concentration 1000.0 nM"}, "[30]": {"target": "Methionine aminopeptidase 2 (Homo sapiens, UniProt P50579)", "experiment": "Biochemical activity-MetAP2 using Co"}, "[31]": {"target": "Serine/threonine-protein kinase STK11 (Homo sapiens) (UniProt Q15831)", "sequence (Q15831 whole entry)": "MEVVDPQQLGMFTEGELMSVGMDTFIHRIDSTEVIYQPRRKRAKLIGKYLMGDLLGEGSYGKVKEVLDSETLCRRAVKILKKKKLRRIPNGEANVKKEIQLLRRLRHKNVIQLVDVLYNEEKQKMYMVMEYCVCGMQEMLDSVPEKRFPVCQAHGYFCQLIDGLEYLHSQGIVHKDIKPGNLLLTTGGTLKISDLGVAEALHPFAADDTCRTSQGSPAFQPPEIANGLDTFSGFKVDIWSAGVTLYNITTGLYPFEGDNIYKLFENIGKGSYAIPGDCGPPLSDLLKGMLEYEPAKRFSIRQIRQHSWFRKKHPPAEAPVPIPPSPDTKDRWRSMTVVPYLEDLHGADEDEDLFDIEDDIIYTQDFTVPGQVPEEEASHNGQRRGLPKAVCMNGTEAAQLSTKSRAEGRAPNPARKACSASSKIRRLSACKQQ", "conditions": "Compound concentration 1000.0 nM"}, "[32]": {"target": "G protein-coupled receptor kinase 3 (Homo sapiens) (UniProt P35626)", "conditions": "Compound concentration 1000.0 nM"}, "[33]": {"target": "Serine/threonine-protein kinase 3 (Homo sapiens) (UniProt Q13188)", "conditions": "Compound concentration 1000.0 nM"}, "[34]": {"target": "Tyrosine-protein kinase JAK1 (Homo sapiens) (UniProt P23458)", "conditions": "Compound concentration 1000.0 nM"}, "[35]": {"target": "SRSF protein kinase 3 (Homo sapiens) (UniProt Q9UPE1)", "conditions": "Compound concentration 1000.0 nM"}, "[36]": {"target": "Calcium/calmodulin-dependent protein kinase kinase 2 (Homo sapiens) (UniProt Q96RR4)", "conditions": "Compound concentration 1000.0 nM"}, "[37]": {"target": "Cyclin-dependent kinase 16 (Homo sapiens) (UniProt Q00536)", "conditions": "Compound concentration 1000.0 nM"}, "[38]": {"target": "MAP kinase-activated protein kinase 2 (Homo sapiens) (UniProt P49137)", "sequence (P49137 whole entry, looked up)": "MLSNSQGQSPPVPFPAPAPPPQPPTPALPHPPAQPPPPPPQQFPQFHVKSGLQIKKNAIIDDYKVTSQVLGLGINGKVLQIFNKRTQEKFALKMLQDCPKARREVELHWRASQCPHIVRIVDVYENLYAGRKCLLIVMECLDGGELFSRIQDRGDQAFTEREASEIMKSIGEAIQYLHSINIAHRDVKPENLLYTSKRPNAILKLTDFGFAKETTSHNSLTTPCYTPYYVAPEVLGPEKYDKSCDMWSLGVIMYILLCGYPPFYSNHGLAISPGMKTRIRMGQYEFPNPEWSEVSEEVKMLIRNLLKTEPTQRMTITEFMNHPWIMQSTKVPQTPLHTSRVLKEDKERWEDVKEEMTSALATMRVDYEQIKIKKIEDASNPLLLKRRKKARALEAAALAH", "conditions": "Compound concentration 1000.0 nM"}, "[39]": {"target": "Testis-specific serine/threonine-protein kinase 3 (Homo sapiens) (UniProt Q96PN8)", "conditions": "Compound concentration 1000.0 nM"}, "[40]": {"target": "STE20-like serine/threonine-protein kinase (Homo sapiens) (UniProt Q9H2G2)", "conditions": "Compound concentration 1000.0 nM"}, "[41]": {"tested_on": "Epidermal growth factor receptor (Homo sapiens), P00533 [UNDEFINED MUTATION]", "conditions": "Compound concentration 1000.0 nM"}, "[42]": {"target": "Mitogen-activated protein kinase kinase kinase 15 (Homo sapiens) (UniProt Q6ZN16)", "conditions": "Compound concentration 1000.0 nM"}, "[43]": {"target": "Cyclin-dependent kinase 4 (Homo sapiens) (UniProt P11802)", "sequence (P11802 whole entry)": "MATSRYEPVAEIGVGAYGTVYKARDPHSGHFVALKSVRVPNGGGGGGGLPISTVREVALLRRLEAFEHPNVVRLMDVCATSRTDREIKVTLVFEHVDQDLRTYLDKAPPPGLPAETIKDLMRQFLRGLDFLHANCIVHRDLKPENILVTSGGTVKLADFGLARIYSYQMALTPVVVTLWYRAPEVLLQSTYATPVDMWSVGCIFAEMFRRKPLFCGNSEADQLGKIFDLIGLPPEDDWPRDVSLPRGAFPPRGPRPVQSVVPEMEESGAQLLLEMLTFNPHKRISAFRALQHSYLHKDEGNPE", "conditions": "Compound concentration 1000.0 nM"}, "[44]": {"target": "Cyclin-dependent kinase 15 (Homo sapiens) (UniProt Q96Q40)", "conditions": "Compound concentration 1000.0 nM"}, "[45]": {"target": "Casein kinase I isoform delta (Homo sapiens) (UniProt P48730)", "conditions": "Compound concentration 1000.0 nM"}, "[46]": {"target": "Serine/threonine-protein kinase Nek3 (Homo sapiens) (UniProt P51956)", "conditions": "Compound concentration 1000.0 nM"}}, "note": "Active and inactive are the calls of the source. The rule behind the calls is not given here.", "data": [{"smiles": "Cc1nc(N2CC[C@@H](O)C2)ncc1-c1cc(C(F)(F)F)cc2[nH]ncc12", "note": "[TP-004]", "values": [{"measurement": "residual activity", "setting": "[1]", "result": 100, "unit": "%"}, {"measurement": "residual activity", "setting": "[2]", "result": 100, "unit": "%"}, {"measurement": "residual activity", "setting": "[3]", "result": 60, "unit": "%"}, {"measurement": "residual activity", "setting": "[4]", "result": 100, "unit": "%"}, {"measurement": "residual activity", "setting": "[5]", "result": 100, "unit": "%"}, {"measurement": "inhibition", "setting": "[6]", "result": 7.69, "unit": "%"}, {"measurement": "inhibition", "setting": "[7]", "result": -8.55, "unit": "%"}, {"measurement": "residual activity", "setting": "[8]", "result": 100, "unit": "%"}, {"measurement": "inhibition", "setting": "[9]", "result": 45.5, "unit": "%"}, {"measurement": "residual activity", "setting": "[10]", "result": 73, "unit": "%"}, {"measurement": "residual activity", "setting": "[11]", "result": 85, "unit": "%"}, {"measurement": "residual activity", "setting": "[12]", "result": 64, "unit": "%"}, {"measurement": "residual activity", "setting": "[13]", "result": 86, "unit": "%"}, {"measurement": "residual activity", "setting": "[14]", "result": 76, "unit": "%"}, {"measurement": "inhibition", "setting": "[15]", "result": 15.9, "unit": "%"}, {"measurement": "residual activity", "setting": "[16]", "result": 100, "unit": "%"}, {"measurement": "residual activity", "setting": "[17]", "result": 94, "unit": "%"}, {"measurement": "inhibition", "setting": "[18]", "result": 0.239, "unit": "%"}, {"measurement": "residual activity", "setting": "[19]", "result": 60, "unit": "%"}, {"measurement": "residual activity", "setting": "[20]", "result": 87, "unit": "%"}, {"measurement": "residual activity", "setting": "[21]", "result": 100, "unit": "%"}, {"measurement": "residual activity", "setting": "[22]", "result": 100, "unit": "%"}, {"measurement": "residual activity", "setting": "[23]", "result": 100, "unit": "%"}, {"measurement": "residual activity", "setting": "[24]", "result": 100, "unit": "%"}, {"measurement": "residual activity", "setting": "[25]", "result": 100, "unit": "%"}, {"measurement": "residual activity", "setting": "[26]", "result": 58, "unit": "%"}, {"measurement": "residual activity", "setting": "[27]", "result": 60, "unit": "%"}, {"measurement": "residual activity", "setting": "[28]", "result": 100, "unit": "%"}, {"measurement": "residual activity", "setting": "[29]", "result": 85, "unit": "%"}, {"measurement": "IC50", "setting": "[30]", "result": "31 nM (active)"}, {"measurement": "residual activity", "setting": "[31]", "result": 100, "unit": "%"}, {"measurement": "residual activity", "setting": "[32]", "result": 87, "unit": "%"}, {"measurement": "residual activity", "setting": "[33]", "result": 80, "unit": "%"}, {"measurement": "residual activity", "setting": "[34]", "result": 100, "unit": "%"}, {"measurement": "residual activity", "setting": "[35]", "result": 84, "unit": "%"}, {"measurement": "residual activity", "setting": "[36]", "result": 100, "unit": "%"}, {"measurement": "residual activity", "setting": "[37]", "result": 75, "unit": "%"}, {"measurement": "residual activity", "setting": "[38]", "result": 95, "unit": "%"}, {"measurement": "residual activity", "setting": "[39]", "result": 100, "unit": "%"}, {"measurement": "residual activity", "setting": "[40]", "result": 98, "unit": "%"}, {"measurement": "residual activity", "setting": "[41]", "result": 83, "unit": "%"}, {"measurement": "residual activity", "setting": "[42]", "result": 100, "unit": "%"}, {"measurement": "residual activity", "setting": "[43]", "result": 88, "unit": "%"}, {"measurement": "residual activity", "setting": "[44]", "result": 81, "unit": "%"}, {"measurement": "residual activity", "setting": "[45]", "result": 95, "unit": "%"}, {"measurement": "residual activity", "setting": "[46]", "result": 60, "unit": "%"}]}]}
